Laboratory results taken from patent publication US20260137701A1, “CHOLESTENOIC ACID (CA) AND A SULFATED DERIVATIVE THEREOF, 3[BETA]-SULFATE-5-CHOLESTENOIC ACID (CA3S), AS ENDOGENOUS EPIGENETIC REGULATORS” (priority 2022, published 2026).

Columns and labels:
recombinant DNMT1 = recombinant DNMT1 (Homo sapiens, UniProt P26358); experiment: DNMT1 enzyme kinetic (activity) assay, 3H-SAM filter; format: biochemical; conditions: FIG. 1B, 0-0.0001 M
Procedure: (§1) The enzyme kinetic studies were carried out by Reaction Biology Company. For the DNMT1 activity assay, the substrate solution, 0.001 mg/ml Poly(dI-dC): Poly(dI-dC) in 50 mM Tris-HCl, pH 7.5, 50 mM NaCl, 5 mM EDTA, 5 mM DTT, 1 mM PMSF, 5% glycerol, 0.01% Brij™35, 1% DMSO was used. For the DNMT3a/3b activity assay, 0.0075 mg/ml Lambda DNA in 50 mM Tris-HCl, pH 7.5, 50 mM NaCl, 5 mM EDTA, 5 mM DTT, 1 mM PMSF, 5% glycerol, 1% DMSO, was used. The indicated DNMT1, DNMT3a and DNMT3b were added to the appropriate substrate solution and gently mixed. Amounts of CA ranging from 5.08E-09 to 0.0001 M in DMSO were added to the reaction mixture by using Acoustic Technology (Echo® 550, LabCyte Inc. Sunnyvale, CA). The mixtures were first incubated for 15 min, then ^3H-SAM was added to the reaction mixture to initiate the reaction, and the mixture was incubated for 60 min at 30° C. Following incubation, the reaction mixture was finally transferred to filter-paper for detection of radioactivity counts.

recombinant DNMT3a = recombinant DNMT3a (Homo sapiens, UniProt Q9Y6K1); experiment: DNMT3a enzyme kinetic (activity) assay, 3H-SAM filter; format: biochemical; conditions: FIG. 1B, 0-0.0001 M
Procedure: as §1

recombinant DNMT3b = recombinant DNMT3b (Homo sapiens, UniProt Q9UBC3); experiment: DNMT3b enzyme kinetic (activity) assay, 3H-SAM filter; format: biochemical; conditions: FIG. 1B, 0-0.0001 M
Procedure: as §1

Hep G2 cells = format: in vitro ADME, human
Source text: Mitochondrial oxysterols, including cholestenoic acid (CA), 25-hydroxycholesterol (25HC), and 27-hydroxycholesterol (27HC), are potent regulators involved in important biological events such as lipid metabolism and inflammatory responses. However, their intracellular catabolic pathways have not been fully explored. In this study, we investigated the metabolic pathways of these oxysterols and their roles in the communication between hepatocytes and macrophages.

Human THP-1 macrophages = experiment: LPS induced inflammatory gene expression in macrophages, real-time RT-PCR; format: cell-based; conditions: 20 uM CA3S 30 min, then 2 ug/ml LPS 6 hours
Procedure: Human THP-1 were plated in 6 well plates with RPMI 1640 media (10% FBS) and induced to be macrophages by 100 nM PMA for 3 days at 37° C. in a […] incubator. The media was then changed to fresh RPMI 1640 (serum free), the cells were treated with 20 uM CA3S in PG for 30 min, and then the cells were stimulated with 2 ug/ml LPS for 6 hours. Total mRNA was extracted by the Promega SV total RNA isolation system (Promega, Madison, WI, USA) and 1 ug of RNA were converted to cDNA with a Reverse Transcription kit (Qiagen, Hilden, Germany). IL-1A, IL-1B, IL-6, IL-8, COX-2, NFKB and TNFα gene expressions were determined by Real-time RT-PCR that was performed using SYBR Green as the indicator on ABI 7500 Fast Real-Time PCR System (Applied Biosystems, Foster City, CA).

recombinant DNMT3a, sequence (Q9Y6K1 whole entry, looked up): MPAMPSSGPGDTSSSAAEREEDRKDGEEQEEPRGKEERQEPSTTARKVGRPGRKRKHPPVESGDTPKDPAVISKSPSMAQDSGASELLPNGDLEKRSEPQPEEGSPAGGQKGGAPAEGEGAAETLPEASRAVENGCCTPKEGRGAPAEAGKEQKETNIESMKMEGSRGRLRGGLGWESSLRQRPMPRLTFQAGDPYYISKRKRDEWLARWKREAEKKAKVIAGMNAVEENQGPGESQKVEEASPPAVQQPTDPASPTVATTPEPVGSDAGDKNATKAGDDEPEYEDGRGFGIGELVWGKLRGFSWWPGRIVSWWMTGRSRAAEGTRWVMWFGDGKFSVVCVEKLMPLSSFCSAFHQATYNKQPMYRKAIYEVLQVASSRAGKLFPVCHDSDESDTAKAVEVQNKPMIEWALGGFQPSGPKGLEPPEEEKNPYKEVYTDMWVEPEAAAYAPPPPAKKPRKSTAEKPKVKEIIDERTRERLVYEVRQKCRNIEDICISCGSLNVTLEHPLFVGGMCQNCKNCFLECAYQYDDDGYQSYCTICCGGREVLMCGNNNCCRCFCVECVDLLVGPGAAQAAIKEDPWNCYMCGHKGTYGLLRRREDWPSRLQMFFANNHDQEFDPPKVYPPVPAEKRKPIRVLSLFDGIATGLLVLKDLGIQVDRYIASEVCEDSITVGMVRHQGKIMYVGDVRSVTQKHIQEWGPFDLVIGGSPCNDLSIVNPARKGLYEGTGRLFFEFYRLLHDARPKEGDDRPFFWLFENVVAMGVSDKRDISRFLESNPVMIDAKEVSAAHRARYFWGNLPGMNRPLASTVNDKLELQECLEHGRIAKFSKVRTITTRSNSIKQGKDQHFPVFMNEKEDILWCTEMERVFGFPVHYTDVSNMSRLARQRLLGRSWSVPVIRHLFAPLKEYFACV
recombinant DNMT1, sequence (P26358 whole entry): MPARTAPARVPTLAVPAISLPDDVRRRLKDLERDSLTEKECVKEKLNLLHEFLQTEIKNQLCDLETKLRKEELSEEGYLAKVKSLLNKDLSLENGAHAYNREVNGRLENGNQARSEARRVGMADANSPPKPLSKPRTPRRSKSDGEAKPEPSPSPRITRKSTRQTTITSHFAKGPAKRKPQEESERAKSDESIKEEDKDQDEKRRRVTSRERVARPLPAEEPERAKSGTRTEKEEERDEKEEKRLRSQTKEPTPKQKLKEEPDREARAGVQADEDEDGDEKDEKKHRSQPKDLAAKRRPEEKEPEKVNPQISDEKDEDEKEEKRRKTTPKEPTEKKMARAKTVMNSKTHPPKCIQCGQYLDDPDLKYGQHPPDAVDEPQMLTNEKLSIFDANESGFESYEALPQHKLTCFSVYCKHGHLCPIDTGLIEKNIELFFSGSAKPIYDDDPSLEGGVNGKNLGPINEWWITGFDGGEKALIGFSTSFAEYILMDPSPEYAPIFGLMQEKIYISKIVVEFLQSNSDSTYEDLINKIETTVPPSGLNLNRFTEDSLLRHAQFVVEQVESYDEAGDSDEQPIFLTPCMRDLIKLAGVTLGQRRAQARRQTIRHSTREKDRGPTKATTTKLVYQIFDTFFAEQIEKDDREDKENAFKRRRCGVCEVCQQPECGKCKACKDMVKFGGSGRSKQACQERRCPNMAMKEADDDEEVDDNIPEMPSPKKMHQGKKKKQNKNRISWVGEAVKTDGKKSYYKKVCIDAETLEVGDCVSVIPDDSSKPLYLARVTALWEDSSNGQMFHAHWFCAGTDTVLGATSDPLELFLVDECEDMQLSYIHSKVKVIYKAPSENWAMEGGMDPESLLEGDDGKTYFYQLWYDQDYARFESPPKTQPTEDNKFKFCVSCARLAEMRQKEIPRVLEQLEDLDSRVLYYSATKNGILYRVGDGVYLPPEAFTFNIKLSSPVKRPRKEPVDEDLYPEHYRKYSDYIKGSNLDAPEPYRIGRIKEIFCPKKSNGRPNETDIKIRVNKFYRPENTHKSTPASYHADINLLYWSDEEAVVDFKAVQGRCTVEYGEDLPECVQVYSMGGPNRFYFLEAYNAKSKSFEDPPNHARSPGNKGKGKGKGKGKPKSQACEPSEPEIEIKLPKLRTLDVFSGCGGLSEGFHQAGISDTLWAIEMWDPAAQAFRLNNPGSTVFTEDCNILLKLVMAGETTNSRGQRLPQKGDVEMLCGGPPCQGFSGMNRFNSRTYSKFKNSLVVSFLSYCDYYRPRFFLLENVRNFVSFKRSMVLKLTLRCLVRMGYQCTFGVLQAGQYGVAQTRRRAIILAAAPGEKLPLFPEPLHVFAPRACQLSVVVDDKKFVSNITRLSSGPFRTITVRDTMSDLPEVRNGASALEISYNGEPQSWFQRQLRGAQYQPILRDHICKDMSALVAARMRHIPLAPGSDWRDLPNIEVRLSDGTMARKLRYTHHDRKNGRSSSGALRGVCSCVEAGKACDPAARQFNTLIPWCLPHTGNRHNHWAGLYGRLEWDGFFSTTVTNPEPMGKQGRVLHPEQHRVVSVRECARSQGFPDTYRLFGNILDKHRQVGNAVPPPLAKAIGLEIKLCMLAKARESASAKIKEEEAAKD

In the case of `C[C@H](CCCC(C)(C)O)[C@H]1CC[C@H]2[C@@H]3CC=C4C[C@@H](O)CC[C@]4(C)[C@H]3CC[C@]12C` [25HC, 25-hydroxycholesterol], the “effect on DNMT1 enzymatic activity” value (recombinant DNMT1) is reported as “potent activators”, the “effect on DNMT3a enzymatic activity” value (recombinant DNMT3a) is reported as “do not have any effect” and the “effect on DNMT3b enzymatic activity” value (recombinant DNMT3b) is reported as “do not have any effect”. The “part of formed 25HC3S released into the media” value (Hep G2 cells) was “⅓”.
In the case of `C[C@@H](CO)CCC[C@@H](C)[C@H]1CC[C@H]2[C@@H]3CC=C4C[C@@H](O)CC[C@]4(C)[C@H]3CC[C@]12C` [27HC, 27-hydroxycholesterol], the “effect on DNMT1 enzymatic activity” value (recombinant DNMT1) is reported as “potent activators”, the “effect on DNMT3a enzymatic activity” value (recombinant DNMT3a) is reported as “do not have any effect” and the “effect on DNMT3b enzymatic activity” value (recombinant DNMT3b) is reported as “do not have any effect”. For the same compound, the “part of the compound converted to 27HC3S” value (Hep G2 cells) was “⅓” and the “part of the compound converted to CA3S” value (Hep G2 cells) was “⅔”.
In the case of `CC(CCC[C@@H](C)[C@H]1CCC2[C@@H]3CC=C4CC(OS(=O)(=O)O)CC[C@]4(C)C3CC[C@@]21C)C(=O)O` (stereo partly drawn) [CA3S, 3 β-hydroxy-5-cholestenoic acid 3-sulfate], the “decrease of COX-2 gene expression” value (Human THP-1 macrophages) is reported as 5 fold and the “decrease of IL-6 gene expression” value (Human THP-1 macrophages) is reported as 6 fold.
